Measurements published in article PMC9699072 (Molecules, 2022).

How the values were obtained:
[1] = test system: normal human dermal fibroblast (NHDF) cultures; assay: Cytotoxicity, MTT/formazan assay; format: cell-based; conditions: 72 h, MTT
Experimental: Cytotoxicity of compounds was evaluated using a culture of human dermal fibroblasts, which were isolated in the Laboratory of Cell Cultures of the Institute of Medical Cell Technologies, Ekaterinburg, Russia. Cells were seeded in 96-well plates in the inoculum dose of 2 × 10^5 cells/mL and cultured for 24 h in Dulbecco’s Modified Eagle Medium (DMEM), with 1% (w/v) glutamine in the presence of 10% (v/v) fetal bovine serum and gentamicin (50 mg/L) at 37 °C, with a humidified atmosphere of 5% (v/v) CO2. Then, compounds, which were solved in DMSO, were added to the wells at the final concentrations of 0.1, 1, 10, and 100 µM. The cells were incubated with compounds for 72 h, after which cell viability was assessed using the standard MTT assay. The assay was carried out in four replicates with negative (culture medium) and positive (solution of the cytotoxic drug camptothecin at a concentration of 3 mM) controls, and the solvent control (DMSO). […] The MTT staining of control cells was taken as 100%.

[2] = set-up: method as in PMID 16997555; conditions: relative to EDA; cited from earlier work

Compound: Cc1n[nH]c(O)c1N.Cl [4j, 4-Amino-3-methyl-1H-pyrazol-5-ol hydrochloride]
- Cytotoxicity against NHDF cell culture ([1]; 100 µM): neither of the compounds 4d,j showed cytotoxicity

Compound: Cc1nn(-c2ccccc2)c(O)c1N.Cl.O [4d, 4-Amino-3-methyl-1-phenyl-1H-pyrazol-5-ol hydrochloride hydrate]
- Cytotoxicity against NHDF cell culture ([1]; 100 µM): neither of the compounds 4d,j showed cytotoxicity
- Cytotoxicity against NHDF cell culture ([1]; 100 µM, listed as APH): not cytotoxic

Compound: Oc1cc(C(F)(F)F)nn1-c1ccccc1 [CF3-EDA, 3-trifluoromethyl-1-phenylpyrazol-5-ol, reference compound]
- Times less active compared to EDA in the OH radical binding test [2]: 3 times

Compound: 3-methyl-1-phenyl-2-pyrazolin-5-one [EDA, reference compound]
- Inhibitory Capability (IC, %) on NHDF ([1]; 1 µM): 3.74 ± 0.05%
- Inhibitory Capability (IC, %) on NHDF ([1]; 10 µM): 19.9 ± 0.8%
- Inhibitory Capability (IC, %) on NHDF ([1]; 100 µM): 32.8 ± 0.6%
